Experiments:
NCI-H358 cells = assay: Proliferation inhibition of NCI-H358 cells (CellTiter-Glo); format: cell-based; conditions: Homo sapiens, NCI-H358, 72 h; 3 days incubation
Experimental: Experimental method: 3000 cells (90 μL of cell suspension) were inoculated to each well of a 96-well cell culture plate (Corning, #3610). The culture plate was incubated in an incubator overnight (37° C., 5% CO2). On the next day, 10 μL of gradient dilutions of the test compound solution (the final DMSO content was 0.2%, V/V, the final concentration of the reaction system ranged from 10 μM to 4.5 nM) was added to each well of the culture plate. At the same time, full activity control (compound only with DMSO) and full inhibition control (no cells) were set up on the reaction plate. The culture plate was incubated in the incubator for 3 days (37° C., 5% CO2).
After completion of the incubation, 50 μL of CellTiter-Glo reagent was added to each well of the cell culture plate, which was left to stand at room temperature for 10 minutes. The chemiluminescence signal value was measured in the Synergy H1 full-function microplate reader (BioTek). […] The IC50 value of the test compounds was calculated by fitting the percentage inhibition rate and data of eight concentrations to a four-parameter nonlinear logic formula with GraphPad prism.
The IC50 value was calculated by fitting the data of different concentrations and corresponding percentage inhibition rates to a four-parameter nonlinear logic formula with GraphPad prism.

[1] = target: T1, SHP-2 full-length protein (Homo sapiens, UniProt Q06124); assay: Inhibition of SHP-2 kinase activity (Homogeneous Full Length SHP-2 Assay Kit); format: biochemical; conditions: relative IC50, full-length SHP-2 with activating peptide
T1 construct: purchased BPS Bioscience 79330
T1 sequence (Q06124 1-593): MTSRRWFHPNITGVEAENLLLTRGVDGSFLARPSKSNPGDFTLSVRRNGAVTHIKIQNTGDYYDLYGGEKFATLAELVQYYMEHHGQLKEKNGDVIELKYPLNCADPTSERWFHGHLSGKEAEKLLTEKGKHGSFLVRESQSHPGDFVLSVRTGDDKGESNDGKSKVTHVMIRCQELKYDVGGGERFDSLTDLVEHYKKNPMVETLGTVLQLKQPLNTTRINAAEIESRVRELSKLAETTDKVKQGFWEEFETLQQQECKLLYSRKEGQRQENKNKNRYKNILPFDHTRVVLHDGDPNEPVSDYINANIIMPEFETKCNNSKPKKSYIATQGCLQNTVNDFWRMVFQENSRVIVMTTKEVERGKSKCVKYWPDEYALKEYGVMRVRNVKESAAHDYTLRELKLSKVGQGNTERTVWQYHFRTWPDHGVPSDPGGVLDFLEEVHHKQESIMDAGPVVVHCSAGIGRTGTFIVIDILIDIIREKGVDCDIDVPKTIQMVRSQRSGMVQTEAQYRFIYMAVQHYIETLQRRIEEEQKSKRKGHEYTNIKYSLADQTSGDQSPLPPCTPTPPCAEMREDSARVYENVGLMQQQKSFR
Experimental: The objective of this test is to determine the inhibitory effect of the compounds on SHP-2 full-length protein allosteric activity.
Experimental method: Homogeneous Full Length SHP-2 Assay Kit (BPS Bioscience, #79330) was used to determine the in vitro SHP-2 activity. First, 18 μL of Master Mix was added to a 96-well low adsorption microplate (NUNC, #267342), i.e., the reaction buffer with a final concentration of 1× comprised 0.5 μM SHP-2 activating Peptide and 5 mM DTT. After centrifugation, 5 μL of test compound/DMSO was added to each well (the final DMSO content was 1%, V/V, the test compound was dissolved in DMSO to 1 mM, a three-fold serial dilution was carried out to obtain ten concentrations, the final concentration of the reaction system ranged from 1 μM to 0.05 nM). SHP-2 was diluted in the 1× reaction buffer to a final concentration of 0.06 nM, and the resulting solution was added to the reaction microplate (2 μL per well). Full activity control (compound only with DMSO) and full inhibition control (no SHP-2) were set up on the reaction plate. After centrifugation, the reaction mixture was incubated at room temperature for 60 minutes.
After completion of the incubation, 25 μL of Substrate solution, which comprised Substrate with a final concentration of 10 μM and 5 mM DTT, was added to each well. After centrifugation, the reaction mixture was incubated at room temperature for 30 minutes. After completion of the reaction, readings were measured on the Synergy H1 full-function microplate reader (BioTek) (excitation wavelength: 340 nm, emission wavelength: […], gain value: 75).
The IC50 value of the test compounds was calculated by fitting the percentage inhibition rate and data of ten concentrations to a four-parameter nonlinear logic formula with GraphPad prism.

IC50 (NCI-H358 cells) [nM]	IC50 [1] [nM]	Structure (SMILES)
32.8	29.6	Nc1nc(N2CCC3(CC2)Cc2nc(Cl)sc2[C@H]3N)cnc1Sc1ccnc(C2CC2)c1Cl [Example 99, (S)-1′-(6-amino-5-((3-chloro-2-cyclopropylpyridin-4-yl)thio)pyrazin-2-yl)-2-chloro-4,6-dihydrospiro[cyclopenta[d]thiazole-5,4′-piperidin]-6-amine]
18.5	3.93	Nc1nc(N2CCC3(CC2)Cc2ncsc2[C@H]3N)cnc1Sc1ccnc(C2CC2)c1Cl [Example 98, (S)-1′-(6-amino-5-((3-chloro-2-cyclopropylpyridin-4-yl)thio)pyrazin-2-yl)-4,6-dihydrospiro[cyclopenta[d]thiazole-5,4′-piperidin]-6-amine]
184	11.7	Nc1nc(N2CCC3(CC2)CC2CC2[C@H]3N)cnc1Sc1ccnc(N)c1C1CC1 (stereo partly drawn) [Example 94, (2R)-1′-(6-amino-5-((2-amino-3-cyclopropylpyridin-4-yl)thio)pyrazin-2-yl)spiro[bicyclo[3.1.0]hexane-3,4′-piperidin]-2-amine]
10.5	4.17	Nc1nc(N2CCC3(CC2)Cc2ccccc2[C@H]3N)cnc1Sc1ccnc(Cl)c1C1CC1 [Example 92, (S)-1′-(6-amino-5-((2-chloro-3-cyclopropylpyridin-4-yl)thio)pyrazin-2-yl)-1,3-dihydrospiro[indene-2,4′-piperidin]-1-amine]
31.1	4.33	Nc1nc(N2CCC3(CC2)Cc2ccccc2[C@H]3N)cnc1Sc1ccnc(C2CC2)c1Cl [Example 93, (S)-1′-(6-amino-5-((3-chloro-2-cyclopropylpyridin-4-yl)thio)pyrazin-2-yl)-1,3-dihydrospiro[indene-2,4′-piperidin]-1-amine]
37	17.8	Nc1nc(N2CCC3(CC2)Cc2ccccc2[C@H]3N)cnc1Sc1ccnc(N)c1C1CC1 [Example 91, (S)-1′-(6-amino-5-((2-amino-3-cyclopropylpyridin-4-yl)thio)pyrazin-2-yl)-1,3-dihydrospiro[indene-2,4′-piperidin]-1-amine]
137	7.71	Nc1nc(N2CCC3(CC2)CCC2(CC2)[C@H]3N)cnc1Sc1ccnc(N)c1Cl [Example 151, (R)-8-(6-amino-5-((2-amino-3-chloropyridin-4-yl)thio)pyrazin-2-yl)-8-azadispiro[2.1.55.23]dodecan-4-amine]

Continued, compound first:

Structure (SMILES)	IC50 (NCI-H358 cells) [nM]	IC50 [1] [nM]
Nc1nc(N2CCC3(CC=C(C4CC4)[C@H]3N)CC2)c(F)nc1Sc1ccnc(N)c1Cl [Example 182, (S)-8-(6-amino-5-((2-amino-3-chloropyridin-4-yl)thio)-3-fluoropyrazin-2-yl)-2-cyclopropyl-8-azaspiro[4.5]dec-2-en-1-amine]	78.5	3.78
Cc1nc(N2CCC3(CC2)Cc2ccccc2[C@H]3N)c(CO)nc1Sc1ccnc(N)c1Cl [Example 170, (S)-(3-(1-amino-1,3-dihydrospiro[indene-2,4′-piperidin]-1′-yl)-6-((2-amino-3-chloropyridin-4-yl)thio)-5-methylpyrazin-2-yl)methanol]	25.9	6.81
CC1=CCC2(CCN(c3nc(N)c(Sc4ccnc(N)c4Cl)nc3F)CC2)[C@@H]1N [Example 184, (S)-8-(6-amino-5-((2-amino-3-chloropyridin-4-yl)thio)-3-fluoropyrazin-2-yl)-2-methyl-8-azaspiro[4.5]dec-2-en-1-amine]	56.5	4.25
Nc1nc(N2CCC3(CC2)Cc2ccccc2[C@H]3N)cnc1Sc1ccnc(N2CCC2)c1Cl [Example 100, (S)-1′-(6-amino-5-((2-(azetidin-1-yl)-3-chloropyridin-4-yl)thio)pyrazin-2-yl)-1,3-dihydrospiro[indene-2,4′-piperidin]-1-amine]	24.5	0.98
Nc1nc(N2CCC3(CC2)Cc2ccccc2[C@H]3N)cnc1Sc1ccnc(N2CC(F)(F)C2)c1Cl [Example 102, (S)-1′-(6-amino-5-((3-chloro-2-(3,3-difluoroazetidin-1-yl)pyridin-4-yl)thio)pyrazin-2-yl)-1,3-dihydrospiro[indene-2,4′-piperidin]-1-amine]	42.6	3.75
Cc1nc(N2CCC3(CC2)Cc2ccccc2[C@H]3N)c(CO)nc1Sc1ccnc(N)n1 [Example 183, (S)-(3-(1-amino-1,3-dihydrospiro[indene-2,4′-piperidin]-1′-yl)-6-((2-aminopyrimidin-4-yl)thio)-5-methylpyrazin-2-yl)methanol]	105	6.7
N[C@@H]1c2ccccc2CC12CCN(c1cnc(Sc3ccnc(C4CC4)c3Cl)cn1)CC2 [Example 97, (S)-1′-(5-((3-chloro-2-cyclopropylpyridin-4-yl)thio)pyrazin-2-yl)-1,3-dihydrospiro[indene-2,4′-piperidin]-1-amine]	41.9	13.2
Nc1nc(N2CCC3(CC2)Cc2ccccc2[C@H]3N)cnc1Sc1ccnc(N2CCCC2)c1Cl [Example 103, (S)-1′-(6-amino-5-((3-chloro-2-(pyrrolidin-1-yl)pyridin-4-yl)thio)pyrazin-2-yl)-1,3-dihydrospiro[indene-2,4′-piperidin]-1-amine]	47	0.66
Cc1nc(N2CCC3(CC2)Cc2ccccc2[C@H]3N)c(CO)nc1-c1cccc(Cl)c1Cl [Example 105, (S)-(3-(1-amino-1,3-dihydrospiro[indene-2,4′-piperidin]-1′-yl)-6-(2,3-dichlorophenyl)-5-methylpyrazin-2-yl)methanol]	10.9	1.56
Nc1nc(N2CCC3(CC2)Cc2ccccc2[C@H]3N)cnc1Sc1ccnc(N2CCOCC2)c1Cl [Example 101, (S)-1′-(6-amino-5-((3-chloro-2-morpholinopyridin-4-yl)thio)pyrazin-2-yl)-1,3-dihydrospiro[indene-2,4′-piperidin]-1-amine]	37.7	5.22
Nc1nc(N2CCC3(CC2)Cc2ccccc2[C@H]3N)c(Br)nc1Sc1ccnc(N)c1Cl [Example 95, (S)-1′-(6-amino-5-((2-amino-3-chloropyridin-4-yl)thio)-3-bromopyrazin-2-yl)-1,3-dihydrospiro[indene-2,4′-piperidin]-1-amine]	6.39	6.27
